From patent US20070009537A1, “Antimicrobial activity of antibodies producing reactive oxygen species” (priority 2002, published 2007) come the findings set out here.

“Also recorded” adds a separate entry of the source. Where two headings read alike, the source gives them in different places.

The nature of data set [1]: H2O2 production by UV irradiation of antibody/protein samples (Amplex Red assay). Type of data set: biochemical. As for the experimental part:
Aliquots (10 μL) were removed at timed intervals throughout the assay. H2O2 concentration was determined by the amplex red method. Each data point is reported as the mean±SEM of at least duplicate measurements: • polyclonal (poly) immunoglobulin (Ig) G, human; O poly-IgG, horse; □ poly-IgG, sheep; ∇ monoclonal (m) IgG (WD1-6G6), murine; Δ poly-IgM, human; ⋄ mIgG (92H2), murine; ▪ β-galactosidase (β-gal); ▴ chick ovalbumin (OVA); ▾ α-lactalbumin (α-lact); ♦ bovine serum albumin (BSA).
An aliquot (20 μl) from the protein solution was removed and added into a well of a 96-well microtiter plate (Costar) containing reaction buffer (80 μl). Working solution (100 μl/400 μM Amplex Red reagent 1/2 units/ml horseradish peroxidase) was then added, and the plate was incubated in the dark for 30 min. The fluorescence of the well components was then measured using a CytoFluor Multiwell Plate Reader (Series 4000, PerSeptive Biosystems, Framingham, Mass.; Ex/Em: 530/580 nm). The hydrogen peroxide concentration was determined using a standard curve. All experiments were run in duplicate, and the rate is quoted as the mean of at least two measurements.
The resultant solution was transferred to a glass, screw-cap vial and irradiated with UV light for 30 min. The concentration of H2O2 was determined after 30 min.

The test system of the next data set is E. coli XL1-blue. Kind of data set: Bactericidal assay (CFU recovery). It is filed as cell-based. The method, then: (§1) In a typical experiment, a culture of E. coli (in log phase growth, OD600=0.2-0.3) was repeatedly pelleted (3×3,500 rpm) and resuspended in PBS (pH 7.4). The PBS suspended cells were then added to glass vials and cooled to 4° C. Hematoporphyrin IX (40 μM) and antibody (20 μM) were added and the vials were either placed on a light box (visible light, 2.8 mW cm^−2) or in the dark at 4° C. and incubated for 1 h. Viability was determined by recovery of colony forming units (CFUs) on agar plates. Each experiment was performed at least in duplicate.
(§2) In a typical experiment, a culture of E. coli (in log phase growth, OD600=0.2-0.3) was repeatedly washed in PBS by pelleting (3×3,500 rpm) the cells and resuspending them in PBS (pH 7.4). The PBS suspended cells were then added to glass vials and cooled to 4° C. Hematoporphyrin IX (40 μM) and antibody (20 μM) were added and the vials were either placed on a light box (visible light, 2.8 mW cm^−2) or in the dark at 4° C. and incubated for 1 h. Viability was determined by recovery of colony forming units (CFUs) on agar plates. Each experiment was performed at least in duplicate.

The test system of a further data set is E. coli O112a,c. It is filed as cell-based. The following applies: 40 μM, white light 2.7 mW cm^−2, 1 h, PBS pH 7.4, 4±1° C. As for the experimental part: as §1, §2
The next data set deals with E. coli. Kind of data set: Bactericidal assay (CFU recovery), strain not specified. It is filed as cell-based. The method, then: as §1, §2
The subject of the next data set is S. typhimurium. Briefly: Bactericidal assay (CFU recovery). It is filed as cell-based, Salmonella typhimurium. As for the experimental part:
In a typical experiment, a culture of S. typhimurium in log phase growth at OD600=0.2-0.3 was repeatedly pelleted (3×3,500 rpm) and resuspended in PBS (pH 7.4). The PBS suspended cells were then added to glass vials and cooled to 4° C. hematoporphyrin IX solution (40 μM) and antibody (20 μM) were added. The vials were placed either on a light box (visible light, 2.8 mW cm^−2) or in the dark at 4° C. Incubation was for 1 hour. Viability was determined by recovery of colony forming units (CFUs) on agar plates. Each experiment was performed with at least duplicate samples.

A short description of data set [2]: Decomposition of O3 under aqueous conditions. It is filed as physicochemical. The conditions noted are these: PBS pH 7.4, 22° C., OD 260 nm. As for the experimental part: The rate of decomposition of O3 under the aqueous conditions employed was measured by the following method. Ozone, produced by a passage of O2 through a Polymetrics ozonizer, was bubbled for 2 min through a phosphate buffered saline (PBS, pH 7.4) solution in a quartz cuvette (1 cm^2) at room temperature. The time-dependent change in optical density was then measured at 260 nm (ε=2,700 M^−1 cm^−1) for at least 5 half lives in a Hitachi u.v./vis spectrophotometer equipped with a thermostatted rack at 22° C. See Takeuchi et al., Anal. Chim. Acta. 230, 183 (1990). […] The sensitivity of the assay was limited by spectrophotometer accuracy to±0.1% (˜1 μM) of the OD at t=0.

chick ovalbumin: chick-egg ovalbumin: in data set [1], the “ability to reduce 1O2 (produce reactive oxygen species from singlet oxygen), panel of other proteins” value (shortened to “ability to reduce 1O2”) is listed as “one of the most efficient proteins at reducing ^1O2”.

Take `CC1=C(CCC(=O)O)c2cc3[nH]c(cc4nc(cc5[nH]c(cc1n2)c(C)c5C(C)O)C(C)=C4C(C)O)c(C)c3CCC(=O)O` (centres unmarked) [hematoporphyrin IX]: the “bactericidal activity of sensitizer alone” value in the data set with E. coli XL1-blue (40 μM, white light 2.7 mW cm^−2, 1 h, PBS pH 7.4, 4±1° C.) was “negligible bactericidal activity”; in the data set on E. coli O112a,c, “negligible bactericidal activity”.

Take `N[C@@H](Cc1c[nH]c2ccccc12)C(=O)O` [tryptophan]: in data set [1] (near-UV irradiation, tryptophan 20 μM), the “H2O2 production during photo-oxidation” value is listed as “ca. 0.5 mole equivalents”.

As for catalase, the “effect on bactericidal activity of non-specific antibodies” value in the data set with E. coli (catalase 13 mU/mL, 11 non-specific murine monoclonal antibodies) is listed as “completely attenuated”. The “protection against the bactericidal activity of non-specific antibodies” value in the data set on E. coli XL1-blue (FIG. 17A, catalase 13 mU/mL) is recorded as “complete protection”.

Take “bovine serum albumin: non-specific protein control”: the bacterial killing result in the data set with E. coli (20 μM) and with S. typhimurium (20 μM) was “no bacterial killing” in each case.

Regarding `O=C(O)CN(CCN(CC(=O)O)CC(=O)O)CC(=O)O` [EDTA], the “effect on survival of bacteria in the assay system” value in the data set on E. coli (2 mM) and in the data set with S. typhimurium (2 mM) was “no effect on the survival of bacteria” in each case.

For “superoxide dismutase: enzyme from Sigma, non-immunoglobulin control protein”, the “ability to reduce 1O2” value in data set [1] was “do not reduce ^1O2; also recorded: does not reside”. In data set [1] (superoxide dismutase irradiated in PBS), the “rate of hydrogen peroxide generation” value is listed as “the same as irradiation of PBS alone”.

Take `O=[O+][O-]` [Clone O3, ozone]: the “half-life (t½)” value came to 66 s in data set [2] and 6 s in data set [2] (listed as ozone).

On to “β-galactosidase: most efficient non-immunoglobulin protein at generating H2O2”, for which the H2O2 photo-production in data set [1] (near-UV irradiation, from its 39 Trp residues) is 5.9 mol eq.

B1: RNase A: ribonuclease, non-immunoglobulin control protein (protein, UniProt P61823 27-150, looked up)
Ribonuclease pancreatic: KETAAAKFERQHMDSSTSAASSSNYCNQMMKSRNLTKDRCKPVNTFVHESLADVQAVCSQKNVACKNGQTNCYQSYSTMSITDCRETGSSKYPNCAYKTTQANKHIIVACEGNPYVPVHFDASV
B1: the “ability to reduce 1O2” value is recorded as “do not reduce ^1O2” in data set [1] and “does not reside” in data set [1] (listed as RNaseA).
